Experimental data from PubChem BioAssay AID1918940 (Molecular Pharmacology Branch, DTP, NCI, 2023).

Test system: NCI-H211 complex spheroid viability
Test: Anticancer human tumor NCI-H211 cell line growth inhibition [LSD1];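 also: luminescent viability read after seven days of drug exposure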;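 as to viability, T/C: 100% = DMSO vehicle control viability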
Details: for IC50: curve of first compound; for viability, T/C: stronger effect = lower value
Outline: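 Complex spheroids of tumor cells with HUVEC and human MSCs, exposed to iadademstat combined with other agents. Each agent tested in half-log steps from near clinical Cmax (else 10 microM top), DMSO ≤0.25%.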

[1] = second compound 0.1 µM, first compound 0.00316 µM
[2] = second compound 0.1 µM, first compound 0.01 µM
[3] = second compound 0.1 µM, first compound 0.0316 µM
[4] = second compound 0.1 µM, first compound 0.1 µM
[5] = second compound 0.1 µM, first compound 0.316 µM
[6] = second compound 0.1 µM, first compound 1 µM
[7] = second compound 0.316 µM, first compound 0.00316 µM
[8] = second compound 0.316 µM, first compound 0.01 µM
[9] = second compound 0.316 µM, first compound 0.0316 µM
[10] = second compound 0.316 µM, first compound 0.1 µM
[11] = second compound 0.316 µM, first compound 0.316 µM
[12] = second compound 0.316 µM, first compound 1 µM
[13] = second compound 1 µM, first compound 0.00316 µM
[14] = second compound 1 µM, first compound 0.01 µM
[15] = second compound 1 µM, first compound 0.0316 µM
[16] = second compound 1 µM, first compound 0.1 µM
[17] = second compound 1 µM, first compound 0.316 µM
[18] = second compound 1 µM, first compound 1 µM
[19] = second compound 3.16 µM, first compound 0.00316 µM
[20] = second compound 3.16 µM, first compound 0.01 µM
[21] = second compound 3.16 µM, first compound 0.0316 µM
[22] = second compound 3.16 µM, first compound 0.1 µM
[23] = second compound 3.16 µM, first compound 0.316 µM
[24] = second compound 3.16 µM, first compound 1 µM
[25] = second compound 10 µM, first compound 0.00316 µM
[26] = second compound 10 µM, first compound 0.01 µM
[27] = second compound 10 µM, first compound 0.0316 µM
[28] = second compound 10 µM, first compound 0.1 µM
[29] = second compound 10 µM, first compound 0.316 µM
[30] = second compound 10 µM, first compound 1 µM

In the case of `O=C(C=Cn1cnc(-c2cc(C(F)(F)F)cc(C(F)(F)F)c2)n1)NNc1cnccn1` + NC1CC1c1ccc(-c2cccc(O)c2)cc1, the IC50 (second compound 0.1 µM) is reported as under 3.16 nM, the IC50 (second compound 0.316 µM) is reported as under 3.16 nM and the IC50 (second compound 1 µM) is reported as under 3.16 nM. For the same molecule, the IC50 (second compound 3.16 µM) was under 3.16 nM, the IC50 (second compound 10 µM) was under 3.16 nM and the viability, T/C [1] was 45.6%. It also gave a viability, T/C [2] of 35.5%, a viability, T/C [3] of 16.3% and a viability, T/C [4] of 6.54%. The viability, T/C [5] was 2.54%, the viability, T/C [6] was 2.3% and the viability, T/C [7] was 29.8%. The viability, T/C [8] was 29%, the viability, T/C [9] was 14.4% and the viability, T/C [10] was 6.98%. It also gave a viability, T/C [11] of 2.61%, a viability, T/C [12] of 2.22% and a viability, T/C [13] of 38.4%. The viability, T/C [14] was 32.6%, the viability, T/C [15] was 12.8% and the viability, T/C [16] was 6.89%. The viability, T/C [17] was 3.1%, the viability, T/C [18] was 2.61% and the viability, T/C [19] was 47.7%. The viability, T/C [20] was 29.5%, the viability, T/C [21] was 16.6% and the viability, T/C [22] was 7.35%. It also gave a viability, T/C [23] of 3.74%, a viability, T/C [24] of 2.99% and a viability, T/C [25] of 40.6%. The viability, T/C [26] was 28.6%, the viability, T/C [27] was 17.8% and the viability, T/C [28] was 9.12%. The viability, T/C [29] was 3.24% and the viability, T/C [30] was 3.79%.
With `COc1cc(C2c3cc4c(cc3C(OC3OC5COC(C)OC5C(O)C3O)C3COC(=O)C23)OCO4)cc(OC)c1O` (stereo not given) + NC1CCC(NC2CC2c2ccccc2)CC1 the IC50 (second compound 0.1 µM) was 9.89 nM, the IC50 (second compound 0.316 µM) was 9.92 nM and the IC50 (second compound 1 µM) was under 9.49 nM. It also gave an IC50 (second compound 3.16 µM) of under 9.49 nM, an IC50 (second compound 10 µM) of under 9.49 nM and a viability, T/C (second compound 0.1 µM, first compound 0.00949 µM) of 51.4%. For the same molecule, the viability, T/C (second compound 0.1 µM, first compound 0.03 µM) was 14.5%, the viability, T/C (second compound 0.1 µM, first compound 0.0949 µM) was 2.21% and the viability, T/C (second compound 0.1 µM, first compound 0.3 µM) was 5.34%. It also gave a viability, T/C (second compound 0.1 µM, first compound 0.949 µM) of 1.9%, a viability, T/C (second compound 0.1 µM, first compound 3 µM) of 2.19% and a viability, T/C (second compound 0.316 µM, first compound 0.00949 µM) of 51.7%. It also gave a viability, T/C (second compound 0.316 µM, first compound 0.03 µM) of 12.7%, a viability, T/C (second compound 0.316 µM, first compound 0.0949 µM) of 1.66% and a viability, T/C (second compound 0.316 µM, first compound 0.3 µM) of 2.34%. The viability, T/C (second compound 0.316 µM, first compound 0.949 µM) was 2.35%, the viability, T/C (second compound 0.316 µM, first compound 3 µM) was 2.14% and the viability, T/C (second compound 1 µM, first compound 0.00949 µM) was 46.1%. The viability, T/C (second compound 1 µM, first compound 0.03 µM) was 11.6%, the viability, T/C (second compound 1 µM, first compound 0.0949 µM) was 2.2% and the viability, T/C (second compound 1 µM, first compound 0.3 µM) was 2.36%. For the same molecule, the viability, T/C (second compound 1 µM, first compound 0.949 µM) was 2.33%, the viability, T/C (second compound 1 µM, first compound 3 µM) was 2.08% and the viability, T/C (second compound 3.16 µM, first compound 0.00949 µM) was 42.2%. For the same molecule, the viability, T/C (second compound 3.16 µM, first compound 0.03 µM) was 10.5%, the viability, T/C (second compound 3.16 µM, first compound 0.0949 µM) was 2.02% and the viability, T/C (second compound 3.16 µM, first compound 0.3 µM) was 2.37%. It also gave a viability, T/C (second compound 3.16 µM, first compound 0.949 µM) of 1.62%, a viability, T/C (second compound 3.16 µM, first compound 3 µM) of 1.85% and a viability, T/C (second compound 10 µM, first compound 0.00949 µM) of 18.9%. For the same molecule, the viability, T/C (second compound 10 µM, first compound 0.03 µM) was 4.24%, the viability, T/C (second compound 10 µM, first compound 0.0949 µM) was 0.87% and the viability, T/C (second compound 10 µM, first compound 0.3 µM) was 0.66%. The viability, T/C (second compound 10 µM, first compound 0.949 µM) was 0.79% and the viability, T/C (second compound 10 µM, first compound 3 µM) was 0.69%.
For `Nc1ncn(C2CC(O)C(CO)O2)c(=O)n1` (stereo not given) + NC1CCC(NC2CC2c2ccccc2)CC1, the IC50 (second compound 0.1 µM) was under 3.16 nM, the IC50 (second compound 0.316 µM) was under 3.16 nM and the IC50 (second compound 1 µM) was under 3.16 nM. The IC50 (second compound 3.16 µM) was under 3.16 nM, the IC50 (second compound 10 µM) was under 3.16 nM and the viability, T/C [1] was 26.7%. The viability, T/C [2] was 17.8%, the viability, T/C [3] was 7.44% and the viability, T/C [4] was 3.11%. For the same molecule, the viability, T/C [5] was 1.96%, the viability, T/C [6] was 1.81% and the viability, T/C [7] was 35%. It also gave a viability, T/C [8] of 16%, a viability, T/C [9] of 9.7% and a viability, T/C [10] of 2.44%. For the same molecule, the viability, T/C [11] was 1.9%, the viability, T/C [12] was 1.78% and the viability, T/C [13] was 33%. For the same molecule, the viability, T/C [14] was 16.2%, the viability, T/C [15] was 7.52% and the viability, T/C [16] was 3.4%. For the same molecule, the viability, T/C [17] was 1.88%, the viability, T/C [18] was 1.32% and the viability, T/C [19] was 29.3%. It also gave a viability, T/C [20] of 17.8%, a viability, T/C [21] of 6.93% and a viability, T/C [22] of 2.47%. The viability, T/C [23] was 1.82%, the viability, T/C [24] was 1.39% and the viability, T/C [25] was 11.7%. It also gave a viability, T/C [26] of 5.2%, a viability, T/C [27] of 2.56% and a viability, T/C [28] of 0.89%. For the same molecule, the viability, T/C [29] was 0.77% and the viability, T/C [30] was 0.61%.
